Data reported in ChEMBL document CHEMBL4507315 (2021).
Calls of active or inactive are those of the source.

What was measured:
[1] = biological target: Heat shock protein beta-1 (Homo sapiens, UniProt P04792); assay: Inhibition of HSP27 (Ser82) (Western blot)
[2] = biological target: 5'-AMP-activated protein kinase catalytic subunit alpha-1 (Homo sapiens) (UniProt Q13131); details: Compound concentration 100.0 nM
[3] = biological target: Calcium/calmodulin-dependent protein kinase type 1B (Homo sapiens) (UniProt Q6P2M8); details: Compound concentration 100.0 nM
[4] = biological target: Dual specificity protein kinase CLK3 (Homo sapiens) (UniProt P49761); details: Compound concentration 100.0 nM
[5] = biological target: Casein kinase I isoform gamma-1 (Homo sapiens) (UniProt Q9HCP0); details: Compound concentration 100.0 nM
[6] = test system: Epidermal growth factor receptor (Homo sapiens), P00533 [UNDEFINED MUTATION]; details: Compound concentration 100.0 nM
[7] = biological target: Fibroblast growth factor receptor 2 (Homo sapiens) (UniProt P21802); details: Compound concentration 100.0 nM
[8] = biological target: Rhodopsin kinase GRK7 (Homo sapiens) (UniProt Q8WTQ7); details: Compound concentration 100.0 nM
[9] = test system: Mast/stem cell growth factor receptor Kit (Homo sapiens), P10721 [A829P]; details: Compound concentration 100.0 nM
[10] = biological target: Serine/threonine-protein kinase LATS2 (Homo sapiens) (UniProt Q9NRM7); details: Compound concentration 100.0 nM
[11] = biological target: Tyrosine-protein kinase Lck (Homo sapiens) (UniProt P06239); details: Compound concentration 100.0 nM
[12] = biological target: Dual specificity mitogen-activated protein kinase kinase 6 (Homo sapiens) (UniProt P52564); details: Compound concentration 100.0 nM
[13] = biological target: Serine/threonine-protein kinase pim-1 (Homo sapiens) (UniProt P11309); details: Compound concentration 100.0 nM
[14] = biological target: Serine/threonine-protein kinase D2 (Homo sapiens) (UniProt Q9BZL6); details: Compound concentration 100.0 nM
[15] = biological target: SRSF protein kinase 1 (Homo sapiens) (UniProt Q96SB4); details: Compound concentration 100.0 nM
[16] = biological target: Serine/threonine-protein kinase TAO1 (Homo sapiens) (UniProt Q7L7X3); details: Compound concentration 100.0 nM
[17] = biological target: Non-receptor tyrosine-protein kinase TYK2 (Homo sapiens) (UniProt P29597); details: Compound concentration 100.0 nM
[18] = organism: Rattus norvegicus; details: Compound concentration 10.0 uM
[19] = biological target: Kappa-type opioid receptor (Homo sapiens, UniProt P41145); assay: GPCRScan assay: inhibition of KOR; parameters: radioligand conc. used [nm] 0.6 – 1.2, parental cells stable HEK
[20] = biological target: Histamine H1 receptor (Homo sapiens, UniProt P35367); assay: GPCRScan assay: inhibition of H1; parameters: radioligand conc. used [nm] 0.6 – 2.0, parental cells stable HEK
[21] = biological target: Sigma intracellular receptor 2 (Homo sapiens, UniProt Q5BJF2); assay: GPCRScan assay: inhibition of Sigma 2; parameters: radioligand conc. used [nm] 5.0, parental cells HEKT
[22] = biological target: Mitogen-activated protein kinase 14 (Homo sapiens) (UniProt Q16539); details: Compound concentration 100.0 nM
[23] = biological target: D(4) dopamine receptor (Homo sapiens) (UniProt P21917); details: Compound concentration 10.0 uM
[24] = biological target: Histamine H2 receptor (Homo sapiens) (UniProt P25021); details: Compound concentration 10.0 uM
[25] = biological target: Muscarinic acetylcholine receptor M5 (Homo sapiens) (UniProt P08912); details: Compound concentration 10.0 uM

Sequence of Epidermal growth factor receptor (Homo sapiens), P00533 [UNDEFINED MUTATION] (P00533 whole entry, looked up, change not shown): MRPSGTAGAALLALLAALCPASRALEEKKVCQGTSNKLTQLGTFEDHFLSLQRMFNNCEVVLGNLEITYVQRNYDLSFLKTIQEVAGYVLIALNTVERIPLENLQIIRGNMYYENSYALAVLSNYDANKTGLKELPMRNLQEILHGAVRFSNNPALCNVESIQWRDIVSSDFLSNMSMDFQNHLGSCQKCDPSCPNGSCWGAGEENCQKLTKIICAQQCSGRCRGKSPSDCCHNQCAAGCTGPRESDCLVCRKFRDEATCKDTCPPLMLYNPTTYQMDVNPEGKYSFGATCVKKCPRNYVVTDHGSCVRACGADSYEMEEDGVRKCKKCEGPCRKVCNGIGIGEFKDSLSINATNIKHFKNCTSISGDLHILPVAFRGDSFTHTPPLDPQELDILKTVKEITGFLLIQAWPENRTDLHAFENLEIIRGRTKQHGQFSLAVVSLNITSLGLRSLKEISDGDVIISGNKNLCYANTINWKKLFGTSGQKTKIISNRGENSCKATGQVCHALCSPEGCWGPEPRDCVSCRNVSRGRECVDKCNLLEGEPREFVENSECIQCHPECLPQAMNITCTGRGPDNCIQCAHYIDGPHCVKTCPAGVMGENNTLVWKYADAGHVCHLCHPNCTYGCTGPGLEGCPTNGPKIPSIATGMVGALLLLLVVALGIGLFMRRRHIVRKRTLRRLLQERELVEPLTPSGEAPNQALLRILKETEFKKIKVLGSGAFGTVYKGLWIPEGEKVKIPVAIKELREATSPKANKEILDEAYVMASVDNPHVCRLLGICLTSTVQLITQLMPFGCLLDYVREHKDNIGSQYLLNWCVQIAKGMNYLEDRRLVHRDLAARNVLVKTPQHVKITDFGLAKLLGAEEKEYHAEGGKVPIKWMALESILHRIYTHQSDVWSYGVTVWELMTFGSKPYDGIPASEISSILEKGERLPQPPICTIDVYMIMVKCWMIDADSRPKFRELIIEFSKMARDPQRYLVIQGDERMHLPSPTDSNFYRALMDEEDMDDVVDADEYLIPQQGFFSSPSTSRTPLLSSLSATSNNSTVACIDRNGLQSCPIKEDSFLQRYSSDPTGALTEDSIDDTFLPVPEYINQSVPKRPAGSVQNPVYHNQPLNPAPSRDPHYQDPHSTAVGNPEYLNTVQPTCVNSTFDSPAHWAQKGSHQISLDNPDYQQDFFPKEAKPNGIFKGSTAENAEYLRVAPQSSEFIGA
Sequence of Rhodopsin kinase GRK7 (Homo sapiens) (Q8WTQ7 whole entry): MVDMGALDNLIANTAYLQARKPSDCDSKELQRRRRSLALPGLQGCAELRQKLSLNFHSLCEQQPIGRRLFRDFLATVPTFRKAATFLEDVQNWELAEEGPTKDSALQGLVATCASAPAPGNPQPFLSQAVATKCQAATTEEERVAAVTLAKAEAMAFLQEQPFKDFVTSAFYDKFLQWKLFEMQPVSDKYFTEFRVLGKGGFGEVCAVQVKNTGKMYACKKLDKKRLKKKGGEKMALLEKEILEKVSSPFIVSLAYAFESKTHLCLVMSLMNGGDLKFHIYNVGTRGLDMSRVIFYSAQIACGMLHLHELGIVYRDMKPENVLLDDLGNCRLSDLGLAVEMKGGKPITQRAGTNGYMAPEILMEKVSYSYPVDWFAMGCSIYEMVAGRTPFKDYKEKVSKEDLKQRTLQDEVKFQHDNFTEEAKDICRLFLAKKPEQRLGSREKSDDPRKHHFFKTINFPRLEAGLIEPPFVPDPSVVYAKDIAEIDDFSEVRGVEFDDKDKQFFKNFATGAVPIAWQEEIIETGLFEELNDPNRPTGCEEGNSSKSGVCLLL
Sequence of Serine/threonine-protein kinase TAO1 (Homo sapiens) (Q7L7X3 whole entry): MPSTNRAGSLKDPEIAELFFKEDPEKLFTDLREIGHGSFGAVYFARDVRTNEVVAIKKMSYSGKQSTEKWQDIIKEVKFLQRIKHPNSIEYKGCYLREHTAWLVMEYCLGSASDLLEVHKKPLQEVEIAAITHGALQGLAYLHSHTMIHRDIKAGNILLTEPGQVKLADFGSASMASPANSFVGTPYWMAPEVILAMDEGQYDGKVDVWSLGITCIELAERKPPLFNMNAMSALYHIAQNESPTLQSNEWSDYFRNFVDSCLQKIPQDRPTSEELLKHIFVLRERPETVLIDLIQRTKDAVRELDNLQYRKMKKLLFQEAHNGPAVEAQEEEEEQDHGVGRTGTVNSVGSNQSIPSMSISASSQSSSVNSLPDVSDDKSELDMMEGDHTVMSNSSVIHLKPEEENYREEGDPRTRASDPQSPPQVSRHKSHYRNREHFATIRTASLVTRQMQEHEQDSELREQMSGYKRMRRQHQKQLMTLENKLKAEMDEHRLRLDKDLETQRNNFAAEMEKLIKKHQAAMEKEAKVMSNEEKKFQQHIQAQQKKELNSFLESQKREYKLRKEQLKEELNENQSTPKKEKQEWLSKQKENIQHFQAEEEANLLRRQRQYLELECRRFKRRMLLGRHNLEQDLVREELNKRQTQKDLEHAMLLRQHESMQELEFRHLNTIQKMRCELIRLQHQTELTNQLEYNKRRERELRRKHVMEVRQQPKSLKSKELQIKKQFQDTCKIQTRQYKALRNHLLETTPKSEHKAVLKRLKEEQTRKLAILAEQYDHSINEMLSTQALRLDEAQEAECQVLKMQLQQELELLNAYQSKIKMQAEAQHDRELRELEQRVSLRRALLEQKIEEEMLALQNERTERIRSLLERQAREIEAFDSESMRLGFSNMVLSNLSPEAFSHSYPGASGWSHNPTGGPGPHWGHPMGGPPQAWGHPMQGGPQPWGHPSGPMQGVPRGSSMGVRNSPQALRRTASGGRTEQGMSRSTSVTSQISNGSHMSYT
Sequence of Kappa-type opioid receptor (P41145 whole entry): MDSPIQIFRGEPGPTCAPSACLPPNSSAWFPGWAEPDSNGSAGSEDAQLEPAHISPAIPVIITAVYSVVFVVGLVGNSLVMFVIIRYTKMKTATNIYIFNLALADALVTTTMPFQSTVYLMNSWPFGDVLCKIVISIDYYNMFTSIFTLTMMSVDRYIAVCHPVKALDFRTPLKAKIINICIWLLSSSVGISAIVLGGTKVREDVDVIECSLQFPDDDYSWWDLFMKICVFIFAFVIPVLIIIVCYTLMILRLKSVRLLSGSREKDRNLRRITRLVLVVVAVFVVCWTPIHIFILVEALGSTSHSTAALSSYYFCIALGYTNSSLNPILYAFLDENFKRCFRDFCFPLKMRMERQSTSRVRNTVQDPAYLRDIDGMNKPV
Sequence of Serine/threonine-protein kinase LATS2 (Homo sapiens) (Q9NRM7 whole entry): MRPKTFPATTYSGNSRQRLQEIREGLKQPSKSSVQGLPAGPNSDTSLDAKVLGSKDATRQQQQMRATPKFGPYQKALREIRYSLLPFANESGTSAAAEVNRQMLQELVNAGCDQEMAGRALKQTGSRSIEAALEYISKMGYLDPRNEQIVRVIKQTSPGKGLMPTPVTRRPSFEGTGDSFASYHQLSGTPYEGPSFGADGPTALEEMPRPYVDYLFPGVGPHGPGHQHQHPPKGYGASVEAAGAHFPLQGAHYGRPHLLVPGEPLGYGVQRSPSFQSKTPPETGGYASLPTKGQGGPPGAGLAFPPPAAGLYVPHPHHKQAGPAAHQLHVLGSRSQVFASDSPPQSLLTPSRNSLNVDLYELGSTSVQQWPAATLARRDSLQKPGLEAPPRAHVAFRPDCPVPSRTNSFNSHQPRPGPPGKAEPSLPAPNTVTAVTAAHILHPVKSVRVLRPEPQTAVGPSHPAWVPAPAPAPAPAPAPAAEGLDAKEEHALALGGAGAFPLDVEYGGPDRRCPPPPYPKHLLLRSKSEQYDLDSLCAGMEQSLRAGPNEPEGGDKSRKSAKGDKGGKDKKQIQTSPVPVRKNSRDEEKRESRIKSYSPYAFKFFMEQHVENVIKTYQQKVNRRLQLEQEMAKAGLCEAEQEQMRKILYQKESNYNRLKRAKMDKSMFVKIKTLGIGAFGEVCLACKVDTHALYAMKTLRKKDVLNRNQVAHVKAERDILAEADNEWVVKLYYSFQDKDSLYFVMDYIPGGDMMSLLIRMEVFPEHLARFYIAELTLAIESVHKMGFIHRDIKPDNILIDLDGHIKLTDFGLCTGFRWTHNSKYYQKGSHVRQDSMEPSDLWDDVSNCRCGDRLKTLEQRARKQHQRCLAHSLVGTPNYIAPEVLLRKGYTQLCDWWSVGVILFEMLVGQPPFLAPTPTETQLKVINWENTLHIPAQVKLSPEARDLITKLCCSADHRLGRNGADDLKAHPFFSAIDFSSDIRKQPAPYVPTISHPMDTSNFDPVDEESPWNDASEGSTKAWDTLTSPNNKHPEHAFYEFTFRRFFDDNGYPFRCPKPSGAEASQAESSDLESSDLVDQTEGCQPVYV
Sequence of Calcium/calmodulin-dependent protein kinase type 1B (Homo sapiens) (Q6P2M8 whole entry): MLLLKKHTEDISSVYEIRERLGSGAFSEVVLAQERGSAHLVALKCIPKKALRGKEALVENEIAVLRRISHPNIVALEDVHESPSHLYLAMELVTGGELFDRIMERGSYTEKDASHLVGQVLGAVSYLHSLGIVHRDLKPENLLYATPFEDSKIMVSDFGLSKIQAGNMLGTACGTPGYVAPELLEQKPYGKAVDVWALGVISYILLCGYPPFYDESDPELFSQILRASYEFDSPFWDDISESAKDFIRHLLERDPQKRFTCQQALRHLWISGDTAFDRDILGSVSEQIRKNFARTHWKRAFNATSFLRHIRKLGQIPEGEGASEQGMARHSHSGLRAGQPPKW
Sequence of Serine/threonine-protein kinase pim-1 (Homo sapiens) (P11309 whole entry, looked up): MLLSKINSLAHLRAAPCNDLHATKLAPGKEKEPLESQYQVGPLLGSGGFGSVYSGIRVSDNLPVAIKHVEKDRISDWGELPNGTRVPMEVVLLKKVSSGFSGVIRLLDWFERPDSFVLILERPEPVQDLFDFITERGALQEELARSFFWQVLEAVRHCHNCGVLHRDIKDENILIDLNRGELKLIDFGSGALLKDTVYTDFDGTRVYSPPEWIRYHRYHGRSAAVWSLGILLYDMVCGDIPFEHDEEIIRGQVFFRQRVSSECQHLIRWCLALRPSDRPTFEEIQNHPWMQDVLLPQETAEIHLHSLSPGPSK

Nc1c(C(=O)NCc2ccc(C(=O)NCCCC3CCCCC3)cc2)cnn1-c1ccccc1 [SR-318]
active: IC50 [1] < 1000 nM
inactive: residual activity [2] 100% | residual activity [3] 100% | residual activity [4] 95% | residual activity [5] 100% | residual activity [6] 100% | residual activity [7] 100% | residual activity [8] 100% | residual activity [9] 100% | residual activity [10] 100% | residual activity [11] 82% | residual activity [12] 79% | residual activity [13] 93% | residual activity [14] 100% | residual activity [15] 90% | residual activity [16] 91% | residual activity [17] 100% | inhibition [18] 27.6%

O=C(NCCCC1CCCCC1)c1ccc(CNC(=O)c2cnn(-c3ccccc3)c2C(F)(F)F)cc1 [SR-321]
< 5: pKi [19] | pKi [20]
inactive: residual activity [2] 100% | residual activity [3] 79% | residual activity [4] 100% | residual activity [5] 100% | residual activity [6] 100% | residual activity [7] 100% | residual activity [8] 100% | residual activity [9] 100% | residual activity [10] 97% | residual activity [11] 100% | residual activity [12] 79% | residual activity [22] 100% | residual activity [13] 100% | residual activity [14] 100% | residual activity [15] 95% | residual activity [16] 96% | residual activity [17] 100% | inhibition [23] 21.7% | inhibition [24] -2.78% | inhibition [25] -4.46%
> 10000 nM: Ki [19] | Ki [20]
2820 nM: Ki ([21]; read-out: pKi (converted))
2890 nM: Ki ([21]; read-out: Ki)
